This passage reports TGI and GI50 results from PubChem BioAssay (NCI).

Molecules are shown by their SMILES. Values joined by “and” are separate entries in the source; they are usually repeats but may differ in a detail not shown here. Equal values may be shown once.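 All cell lines were grown in 96-well plates and treated with compound for 48 hours. GI50: concentration for 50% inhibition of growth. TGI: total growth inhibition.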 A value given as a limit tells only on which side of the number the result lay.

Holding throughout (assay): NCI-60 cell line screen, 48 h
Assay [1] concerns OVCAR-5 ovarian.
In assay [2] the test system is KM20L2 colon.
In assay [3] the test system is LXFL 529 NSCLC.
Assay [4] concerns NCI-H460 lung.
The test system of assay [5] is HOP-18 NSCLC.
In assay [6] the test system is SK-MEL-5 melanoma.
Assay [7] deals with IGROV1 ovarian.
Assay [8] has as its system XF 498 CNS.
The subject of assay [9] is T-47D breast.
For assay [10], the system named is HS 578T breast.

Consider `O=C(NS(=O)(=O)c1ccccc1)C(Cc1ccccc1)C(Cc1ccccc1)C(=O)NS(=O)(=O)c1ccccc1` (stereo not drawn), for which the TGI in assay [1], in [2], in [3], in [4], in assay [5] and in [6] was greater than 100 µM each time. The compound also gave a TGI in [7] greater than 100 µM.
Take `COC(=O)CCC(=O)NC1C2CC3CC(C2)CC1C3` (stereo not drawn): the TGI in [1], in assay [8], in assay [2], in assay [3], in assay [4] and in assay [5] was greater than 100 µM in each case. For the same compound, the TGI in assay [6] and in assay [7] was greater than 100 µM each time.
With `N#CC1=C(Cl)NC(Cl)=C(C#N)C1c1c(Cl)cccc1Cl`, the TGI was greater than 100 µM in assay [1]; 35.5 µM in [8]; 76.9 µM in assay [2]; greater than 100 µM in [3]; 38.3 µM in assay [4]; 91.5 µM in [5]. For the same compound, the TGI in assay [6] was 39.1 µM; in assay [7], greater than 100 µM.
For the compound `O=S(=O)(C/C(=N\O)c1ccccc1)c1ccccc1`, the TGI in assay [1], in assay [8], in assay [2], in assay [3], in assay [4] and in assay [5] was greater than 100 µM throughout. The TGI in assay [6] and in assay [7] was greater than 100 µM throughout.
As to `CCC(=O)N/N=C(\C=C\c1cccc(O)c1)c1sc(Nc2ccc(C)cc2[N+](=O)[O-])nc1C`, the TGI in assay [1], in assay [2], in [3], in [4], in assay [5] and in assay [6] was greater than 100 µM throughout. The same compound gave a TGI in [7] greater than 100 µM.
Take `O=C1C=CC(CC(=O)c2ccc3ccccc3c2)O1` (stereo not drawn): the TGI is 41.5 µM in [1]; greater than 100 µM in [8]; 34.7 µM in assay [2]; 32.3 µM in assay [3]; 55.2 µM in assay [4]; greater than 100 µM in [5]. Besides, the figures for the TGI in assay [6] and in [7] were greater than 100 µM and 65.2 µM, respectively.
Consider `Nn1c(N=Nc2c(O)[nH]c3c(Cl)cc(Cl)cc23)n[nH]c1=S`, for which the TGI in assay [1], in assay [2], in assay [3], in assay [4], in assay [5] and in assay [6] was greater than 100 µM throughout. In [7], this compound registered a TGI greater than 100 µM.
In the case of `COC(=O)C1=C(c2ccc3c(c2)OCO3)OC(c2cc(OC)c(OC)c(OC)c2)C1` (stereo not drawn), the TGI in [1] was greater than 100 µM; in [8] it was greater than 100 µM; in [3], greater than 100 µM; in [4] it was greater than 100 µM; in [5], greater than 100 µM; in assay [6] it was 60.3 µM. This compound also displayed a TGI in assay [7] of 9.53 µM.
Take `O=C(NO)c1ccc(O)c(O)c1`: the TGI in assay [1], in [8], in [2], in assay [3], in [4] and in assay [5] was greater than 100 µM throughout. In addition, the TGI in [6] and in [7] was greater than 100 µM each time.
Regarding `O=C1NC(=O)C2C1N(Cc1ccccc1)C(=O)N2Cc1ccccc1` (stereo not drawn), the TGI in [1], in assay [8], in [2], in assay [3], in [4] and in assay [6] was greater than 100 µM throughout. Besides, the TGI in assay [7] was greater than 100 µM.
Regarding `Cc1cccc(C(C)(C)C)c1NC(=O)CC1Sc2ccccc2NC1=O` (stereo not drawn), the TGI in assay [1], in assay [2], in assay [3], in assay [4], in assay [5] and in [6] was greater than 100 µM throughout. For the same compound, the TGI in [7] is greater than 100 µM.
Consider `O=C(/C=C1/Nc2ccc([N+](=O)[O-])cc2NC1O)c1cccc([N+](=O)[O-])c1` (stereo not drawn), for which the TGI was greater than 100 µM in [8]; 96.2 µM in [2]; greater than 100 µM in assay [3]; greater than 100 µM in assay [4]; greater than 100 µM in assay [6]; greater than 100 µM in assay [7].
On to `COC1=C2CC(C)CC(OC)C(O)C(C)/C=C(\C)C(OC(N)=O)C(OC)/C=C\C=C(/C)C(=O)NC(=C(/C=N/N3CCCCC3)C1=O)C2=O` (stereo not drawn), for which the TGI in assay [1] turned out to be 34.5 µM; in assay [8], 19.9 µM; in assay [2], 10.1 µM; in [3], 24.1 µM; in assay [4], 57.1 µM; in assay [5], 27.2 µM. For the same compound, the TGI in [6] stood at 29.9 µM; in assay [7], 27 µM.
With `CC1=CC(=O)N(c2c(C)cccc2Cl)C(C)N1` (stereo not drawn), the TGI in assay [1], in assay [2], in assay [3], in assay [4], in [5] and in assay [6] was greater than 100 µM each time. Further, the TGI in assay [7] is greater than 100 µM.
For `CC(=O)Oc1ccc(C(c2ccc(OC(C)=O)cc2)c2ccccn2)cc1`, the GI50 in assay [1] is 55.7 µM; in assay [4] it was greater than 78.5 µM; in assay [9] it was 0.204 µM; in assay [6], 31.8 µM; in assay [7] it was 19.9 µM. Besides, the TGI in [1] was > 100 µM and 95.4 µM; in assay [8], greater than 86.1 µM; in assay [2], greater than 100 µM; in assay [3], greater than 100 µM; in assay [4], greater than 100 µM; in assay [5] it was greater than 100 µM. For the same compound, the TGI in [9] is 0.532 µM and 1.19 µM; in assay [10], 0.677 µM and 0.638 µM; in assay [6], greater than 100 µM; in assay [7], greater than 100 µM.
On to `O=C(O)CCSC(=O)Nc1ccc(N=Nc2ccccc2)cc1`, for which the TGI in [1], in assay [8], in assay [2], in assay [3], in assay [4] and in [5] was greater than 100 µM throughout. For the same compound, the TGI in [6] and in [7] was greater than 100 µM each time.
In the case of `CN1CC(=O)N(C)c2nc[nH]c2C1=O`, the TGI in [1], in [8], in assay [3], in assay [4], in [5] and in assay [6] was greater than 100 µM each time. In assay [7], this compound registered a TGI greater than 100 µM.
